Measurements: patent publication US20150366827A1, “COMPOSITIONS AND METHODS FOR MIXING AND APPLYING MIXED OXIDANT COMPOSITIONS FOR DAIRY ANIMAL TREATMENT” (GEA Farm Technologies, Inc., priority 2009, published 2015)
Each block holds one molecule with its values, some of them ahead of it.

Columns and labels:
[1] = Loss of mixed oxidant activity on exposure to additives (iodometric thiosulfate titration); format: physicochemical; design: % Loss of mixed oxidant activity at (23° C.) / % Loss of Activity at (23° C.): concentration or dose not given beside the values; settings: for % Loss of mixed oxidant activity after 24 hours at (23° C.) exposure to mixed oxidant: emollients, beginning mixed oxidant 3800-4100 ppm as available chlorine
Protocol: The activity of a mixed oxidant system is preferably measured with an iodometric titration by the addition of excess iodide and acid and titration of the resulting iodine (in the form of triiodide) with sodium thiosulfate. This method can measure the various oxidants in the mixture, comprising chlorine.
(§1) A teat dip composition is defined as stable when the activity of the mixed oxidant decreases by less than about 25% over a 12 hour to 72 hour period. The Tables 1 through 3, and 5 below show the stability of mixed oxidants when exposed to various additives for 12 hours to 96 hours. […] In each Table 1 through 5, the beginning mixed oxidant titrated at between 3800 ppm to 4100 ppm measured as available chlorine.

[2] = Loss of color of colorants exposed to mixed oxidant, judged on teat; format: physicochemical, dairy animal
Protocol: as §1
Colorants are added to teat dips to provide a visual indicator that a teat dip was applied to a diary animal teat.
Preferably, a stable colorant is added to the teat sanitizer composition, but the colorant must be visible on the teat at the Ready-to-Use concentration. Some colorants are unacceptable because they are stable in their color in solution, but they are not visible on the teat after an exposure to the mixed oxidant for a period of time.

[3] = chelators, 0.1 days exposure to mixed oxidant, 23° C.

Molecule: Nonylphenol ethoxylate
% Loss of mixed oxidant activity at (23° C.) ([1]; surfactants, 2 days exposure to mixed oxidant, 23° C.): 55%

% Loss of mixed oxidant activity at (23° C.) ([1]; surfactants, 1 day exposure to mixed oxidant, 23° C.): 56%
Molecule: Cocamido propyl betaine

% Loss of mixed oxidant activity after 24 hours at (23° C.) exposure to mixed oxidant ([1]; 23° C.): 11%
Molecule: CC(C)CCCCCCCCCCCCCCC(=O)OC(C)C [Isopropyl Isostearate]

Color intensity on teat after 1 day exposure to 4000 ppm mixed oxidant [2]: Clear
Molecule: COc1cc(S(=O)(=O)[O-])c(C)cc1N=Nc1c(O)ccc2cc(S(=O)(=O)[O-])ccc12.[Na+].[Na+] [FD&C Red #40]

Molecule: EDTA 100
% Loss of mixed oxidant activity at (23° C.) [1, 3]: 94%

% Loss of mixed oxidant activity after 24 hours at (23° C.) exposure to mixed oxidant ([1]; 23° C.): 71% | % Loss of mixed oxidant activity after 24 hours at (23° C.) exposure to mixed oxidant ([1]; 23° C., listed as Propylene Glycol): 7%
Molecule: CC(O)CO (stereo not drawn) [Propylene glycol]

Color intensity on teat after 1 day exposure to 4000 ppm mixed oxidant [2]: Clear
Molecule: CN(C)c1ccc2nc3ccc(=[N+](C)C)cc-3sc2c1 [Methylene Blue]

Color intensity on teat after 1 day exposure to 4000 ppm mixed oxidant [2]: Clear
Molecule: O=S(=O)([O-])c1ccc(N=Nc2c(O)ccc3cc(S(=O)(=O)[O-])ccc23)cc1.[Na+].[Na+] [Yellow #6]

Color intensity on teat after 1 day exposure to 4000 ppm mixed oxidant [2]: Clear | Visibility of the dye once applied to a dairy animal teat ([2]; after exposure to mixed oxidant): unacceptable | Color in the composition after exposure to the mixed oxidant ([2]; in solution, after exposure to mixed oxidant): still has some color
Molecule: O=C([O-])C1=NN(c2ccc(S(=O)(=O)[O-])cc2)C(=O)C1N=Nc1ccc(S(=O)(=O)[O-])cc1.[Na+].[Na+].[Na+] (stereo not drawn) [Yellow #5]

% Loss of mixed oxidant activity after 24 hours at (23° C.) exposure to mixed oxidant ([1]; 23° C.): 13%
Molecule: CC(C)CCCCCCCCCCCCCCCOC(=O)CCCCC(=O)OCCCCCCCCCCCCCCCC(C)C [Diisostearyl Adipate]

% Loss of mixed oxidant activity after 24 hours at (23° C.) exposure to mixed oxidant ([1]; 23° C.): 97%
Molecule: OCC(O)CO [Glycerin]

% Loss of mixed oxidant activity after 24 hours at (23° C.) exposure to mixed oxidant ([1]; 23° C.): 11%
Molecule: CCCCCCCCCCCCCCCCCC(=O)OCCCCCCCC [Octyl stearate]

Molecule: O=C([O-])[C@H](O)[C@@H](O)[C@H](O)[C@H](O)CO.[Na+] [Sodium Gluconate]
% Loss of mixed oxidant activity at (23° C.) [1, 3]: 90%

% Loss of Activity at (23° C.) ([1]; antimicrobials, 2 days exposure to mixed oxidant, 23° C.): 6%
Molecule: CCCCCCCCCCCCc1ccc(S(=O)(=O)O)cc1 [DDBSA, dodecylbenzenesulfonic acid]

Color intensity on teat after 1 day exposure to 4000 ppm mixed oxidant [2]: Clear
Molecule: CCN(Cc1cccc(S(=O)(=O)[O-])c1)c1ccc(C(=C2C=CC(=[N+](CC)Cc3cccc(S(=O)(=O)[O-])c3)C=C2)c2ccccc2S(=O)(=O)[O-])cc1.[Na+].[Na+] [FD&C Blue 1]

Stability of chelator with mixed oxidant (in words) ([1]; chelators compatible with mixed oxidant): stable | % Loss of mixed oxidant activity at (23° C.) ([1]; chelators, 2 days exposure to mixed oxidant, 23° C.): 3.5%
Molecule: O=P(O)(O)OP(=O)(O)OP(=O)(O)O [Na, sodium Tripolyphosphate]

% Loss of mixed oxidant activity after 24 hours at (23° C.) exposure to mixed oxidant ([1]; 23° C.): 78%
Molecule: OC[C@@H](O)[C@@H](O)[C@H](O)[C@@H](O)CO [Sorbitol]
